Tested on: TGF-b induced Endothelin-1 production
Experiment: ET-1 assay: inhibitory effect on TGF-b induced endothelin-1 production
Type: cell-based
Settings: Homo sapiens, Fibroblast; fibroblasts, stimulant (TGFb, serum, LPA etc), ET-1 in media by ELISA, 4-parameter fit
Description: Assay of Inhibitory Effect on TGF-b Induced Endothelin-1 Production
Fibroblasts (primary human lung and dermal, HFL-1, 3T3 etc) are seeded in 96-well plates at ˜15000 cells/well and serum starved for 0-48 hours. After media exchange, compounds serially diluted in DMSO are added to the cells. After a brief incubation of ˜30 min, stimulants (TGFb, serum, LPA etc) are added followed by further incubation for 16-48 hours. Media is then harvested and stored frozen in plate format for later endothelin-1 (ET-1) determination by ELISA. Toxicity measurements are made using the ATPlite kit (Perkin-Elmer). ET-1 is quantified using an ELISA kit (R&D Systems). The amount of ET-1 produced in the assay wells are back-calculated using the ELISA standard. The ability of a compound to inhibit ET-1 production is typically analyzed by fitting dose-response curves to a 4-parameter logistic function to obtain an EC50 value. A measure of cytotoxicity (CC50) is likewise reported from the same experiment using the ATPlite data.
Compounds of some embodiments were prepared according to synthetic methods described herein and assay data obtained for EC50 against ET-1. The assay data obtained is presented in Table 2, in which A=less than 50 μM, B=greater than or equal to 50 μM and less than or equal to 200 μM; and C=greater than 200 μM.

| SMILES | EC50 [µM] |
| --- | --- |
| CC(C)OC(=O)Nc1cc(=O)n(-c2ccc(OC(F)(F)F)cc2)cc1-c1ccc(F)cc1 [Compound 112] | > 200 |
| O=C(Nc1cc(=O)n(-c2ccc(OC(F)(F)F)cc2)cc1-c1ccc(F)cc1)Oc1ccccc1 [Compound 113] | > 200 |
| CCCNC(=O)Nc1cc(=O)n(-c2ccc(OC(F)(F)F)cc2)cc1-c1ccc(F)cc1 [Compound 115] | > 200 |
| O=C(NCc1ccccc1)Nc1cc(=O)n(-c2ccc(OC(F)(F)F)cc2)cc1-c1ccc(F)cc1 [Compound 116] | > 200 |
| O=C(NCc1ccccc1)c1cc(=O)n(-c2ccc(OC(F)(F)F)cc2)cc1-c1ccc(F)cc1 [Compound 118] | > 200 |
| Cn1cc(-c2cn(-c3ccc(OC(F)(F)F)cc3)c(=O)cc2O)cn1 [Compound 121] | > 200 |
| Cn1cc(-c2cn(-c3ccc(OC(F)(F)F)cc3)c(=O)cc2Cl)cn1 [Compound 122] | > 200 |
| Cn1cc(-c2cn(-c3ccc(OC(F)(F)F)cc3)c(=O)cc2N)cn1 [Compound 124] | > 200 |
| CNc1cc(=O)n(-c2ccc(OC(F)(F)F)cc2)cc1-c1cnn(C)c1 [Compound 125] | > 200 |
| Cn1cc(-c2cn(-c3ccc(OC(F)(F)F)cc3)c(=O)cc2N2CCCCC2)cn1 [Compound 127] | > 200 |
| Cn1cc(-c2cn(-c3ccc(OC(F)(F)F)cc3)c(=O)cc2N2CCOCC2)cn1 [Compound 128] | < 50 |
| Cn1cc(-c2cn(-c3ccc(OC(F)(F)F)cc3)c(=O)cc2N2CCc3ccccc3C2)cn1 [Compound 129] | 50 to 200 |
| Cn1cc(-c2cn(-c3ccc(OC(F)(F)F)cc3)c(=O)cc2Nc2ccccc2)cn1 [Compound 130] | > 200 |
| Cn1cc(-c2cn(-c3ccc(OC(F)(F)F)cc3)c(=O)cc2NCCc2ccccc2)cn1 [Compound 131] | > 200 |
| Cn1cc(-c2cn(-c3ccc(OC(F)(F)F)cc3)c(=O)cc2NCc2c(Cl)cccc2Cl)cn1 [Compound 132] | > 200 |
| COc1ccc(CN(C)c2cc(=O)n(-c3ccc(OC(F)(F)F)cc3)cc2-c2cnn(C)c2)cc1 [Compound 135] | 50 to 200 |
| CCOC(=O)Nc1cc(=O)n(-c2ccc(OC(F)(F)F)cc2)cc1-c1cnn(C)c1 [Compound 137] | > 200 |
| COC(=O)Nc1cc(=O)n(-c2ccc(OC(F)(F)F)cc2)cc1-c1cnn(C)c1 [Compound 138] | > 200 |
| CC(C)OC(=O)Nc1cc(=O)n(-c2ccc(OC(F)(F)F)cc2)cc1-c1cnn(C)c1 [Compound 139] | > 200 |
| CC(=O)Nc1cc(=O)n(-c2ccc(OC(F)(F)F)cc2)cc1-c1cnn(C)c1 [Compound 141] | > 200 |

| SMILES | EC50 [µM] |
| --- | --- |
| Cn1cc(-c2cn(-c3ccc(OC(F)(F)F)cc3)c(=O)cc2OCc2ccccc2)cn1 [Compound 143] | > 200 |
| COCCOc1cc(=O)n(-c2ccc(OC(F)(F)F)cc2)cc1-c1cnn(C)c1 [Compound 144] | > 200 |
| Cn1cc(-c2cn(-c3ccc(OC(F)(F)F)cc3)c(=O)cc2OCCN2CCCC2)cn1 [Compound 145] | 50 to 200 |
| Cn1cc(-c2cn(-c3ccc(OC(F)(F)F)cc3)c(=O)cc2OCCN2CCCC2=O)cn1 [Compound 146] | > 200 |
| Cn1cc(-c2cn(-c3ccc(OC(F)(F)F)cc3)c(=O)cc2OCCN2CCOCC2)cn1 [Compound 147] | > 200 |
| Cn1cc(-c2cn(-c3ccc(OC(F)(F)F)cc3)c(=O)cc2OCCN2CCS(=O)(=O)CC2)cn1 [Compound 148] | > 200 |
| Cn1cc(-c2cn(-c3ccc(OC(F)(F)F)cc3)c(=O)cc2OC2CCS(=O)(=O)CC2)cn1 [Compound 149] | 50 to 200 |
| Cn1cc(-c2cn(-c3ccc(OC(F)(F)F)cc3)c(=O)cc2OCCN2CCOCC2=O)cn1 [Compound 150] | 50 to 200 |
| CN1CCC(Oc2cc(=O)n(-c3ccc(OC(F)(F)F)cc3)cc2-c2cnn(C)c2)CC1 [Compound 151] | < 50 |
| CN1CCN(CCOc2cc(=O)n(-c3ccc(OC(F)(F)F)cc3)cc2-c2cnn(C)c2)CC1 [Compound 152] | 50 to 200 |
| CCOc1ccc(Oc2cc(=O)n(-c3ccc(OC(F)(F)F)cc3)cc2-c2cnn(C)c2)cc1C [Compound 154] | > 200 |
| Cn1cc(-c2cn(-c3ccc(OC(F)(F)F)cc3)c(=O)cc2Oc2cc(Cl)cc(C#N)c2)cn1 [Compound 156] | > 200 |
| Cn1cc(-c2cn(-c3ccc(OC(F)(F)F)cc3)c(=O)cc2C(=O)O)cn1 [Compound 158] | > 200 |
| CCCNC(=O)c1cc(=O)n(-c2ccc(OC(F)(F)F)cc2)cc1-c1cnn(C)c1 [Compound 159] | > 200 |
| Cc1cc(=O)n(-c2cccc(C(F)(F)F)c2)cc1-c1ccccc1 [Compound 163] | < 50 |
| Cc1cc(=O)n(-c2ccc(OC(F)(F)F)cc2)cc1-c1ccccc1 [Compound 164] | < 50 |
| Cc1cc(=O)n(-c2ccccc2)cc1-c1ccccc1 [Compound 165] | 50 to 200 |
| Cc1cc(=O)n(-c2cccc(OC(F)(F)F)c2)cc1-c1ccccc1 [Compound 166] | < 50 |
| CC(=O)Nc1cccc(-n2cc(-c3ccccc3)c(C)cc2=O)c1 [Compound 167] | > 200 |
| CCOc1ccc(-n2cc(-c3ccccc3)c(C)cc2=O)c(C)c1 [Compound 168] | 50 to 200 |

| SMILES | EC50 [µM] |
| --- | --- |
| Cc1cc(=O)n(-c2ccc(Cl)cc2C)cc1-c1ccccc1 [Compound 169] | 50 to 200 |
| Cc1cc(=O)n(-c2ccc(C(F)(F)F)cc2C)cc1-c1ccccc1 [Compound 170] | < 50 |
| Cc1cc(=O)n(-c2ccccc2F)cc1-c1ccccc1 [Compound 171] | 50 to 200 |
| CC(=O)Nc1cccc(-n2cc(-c3ccc(F)cc3)c(C)cc2=O)c1 [Compound 172] | > 200 |
| Cc1cc(=O)n(-c2ccc(C(F)(F)F)cc2)cc1-c1ccc(F)cc1 [Compound 173] | > 200 |
| Cc1cc(=O)n(-c2cccc(OC(F)(F)F)c2)cc1-c1ccc(F)cc1 [Compound 174] | < 50 |
| Cc1cc(=O)n(-c2ccccc2)cc1-c1ccc(F)cc1 [Compound 176] | 50 to 200 |
| Cc1cc(=O)n(-c2cccc(C(F)(F)F)c2)cc1-c1ccc(F)cc1 [Compound 177] | 50 to 200 |
| Cc1cc(=O)n(-c2ccccc2F)cc1-c1ccc(F)cc1 [Compound 178] | 50 to 200 |
| Cc1cc(=O)n(-c2ccc(Cl)cc2)cc1-c1ccc(F)cc1 [Compound 181] | > 200 |
| Cc1cc(=O)n(-c2ccc3c(c2)OCCO3)cc1-c1ccc(F)cc1 [Compound 182] | > 200 |
| Cc1cc(=O)n(-c2ccc3c(c2)OCO3)cc1-c1ccc(F)cc1 [Compound 183] | > 200 |
| Cc1cc(=O)n(-c2ccc(OC(F)(F)F)cc2C)cc1-c1ccc(F)cc1 [Compound 186] | < 50 |
| Cc1cc(=O)n(-c2cccc(N)c2)cc1-c1ccc(F)cc1 [Compound 187] | 50 to 200 |
| CNC(=O)c1cccc(-n2cc(-c3ccc(F)cc3)c(C)cc2=O)c1 [Compound 190] | 50 to 200 |
| Cc1cc(=O)n(-c2ccc(OC(F)(F)F)cc2)cc1-c1cccc(Cl)c1 [Compound 191] | 50 to 200 |
| CCOc1ccc(-n2cc(-c3cccc(F)c3)c(C)cc2=O)c(C)c1 [Compound 193] | 50 to 200 |
| Cc1cc(=O)n(-c2ccc(OC(F)(F)F)cc2)cc1-c1ccccc1F [Compound 194] | < 50 |
| Cc1cc(=O)n(-c2ccc(OC(F)(F)F)cc2)cc1-c1ccc(Cl)c(Cl)c1 [Compound 197] | 50 to 200 |
| CCc1cc(=O)n(-c2ccc(OC(F)(F)F)cc2)cc1-c1ccc(F)cc1 [Compound 199] | 50 to 200 |

Reference: patent US10233195B2, “Anti-fibrotic pyridinones” (InterMune, Inc., priority 2014, dated 2019)
